One molecule from US9547001B2, “Antibody specific for trans-resveratrol and use thereof” (IP Science Limited, priority 2011, dated 2017) can be followed below.

Type in all cases: in vivo
Data set [1] in a line: anti-tRV ELISA measurement of tRV in human serum after 1 mg tRV in 200 ml red wine (wine study). The following applies: sum of 1 h + 2 h + 4 h + 6 h + 8 h, one value per volunteer. The protocol:
(§1) 2 ml of ethyl acetate was added to 0.5 ml of serum sample, then mixed on a vortex for 3 minutes, followed by centrifugation for 2 minutes at 500 r/min. The upper layer of ethyl acetate was transferred into a new tube. To the remaining lower water fraction a second portion of 2 ml ethyl acetate was added and the extraction procedure was repeated. The new ethyl acetate fraction was added to the old one, giving a total volume of 4 ml, which was then dried by air flow at 60° C., using a Reacti-Therm™III, Thermo scientific, USA.[…]. 40 μl of ethanol was then added and mixed on vortex, then 160 μl of PBS with 0.5% BSA was added and mixed again. This final solution was used for the analysis described below.
RV-BSA was pre-absorbed on microplate wells in 0.1M carbonate buffer, pH=9.5 (at a concentration of 5 μg/ml) overnight at 4° C. […]
(§2) The plate was washed out four times with PBST, and then a chromogeninc substrate was added, tetramethylbenzidine+H2O2. After stopping the reaction with 1M H2SO4, optic density was read at λ450 nm, Multiscan EX (<<Thermo>>, USA).
Inhibition by free tRV of the binding of serum antibodies with immobolised RV-BSA (Kin) was calculated according to the following formula: Kin=100−(A450D/A450C−)×100, where: • A450D is the optic density in samples with free tRV (testing serum or samples from the calibrating curve), • A450 C is the an optic density without free tRV. […]
(ELISA stands for enzyme-linked immunosorbent assay.)

Data set [2] can be described thus: HPLC-MS measurement of tRV in human serum after 1 mg tRV in 200 ml red wine (wine study). The following applies: sum of 1 h + 2 h + 4 h + 6 h + 8 h, one value per volunteer. The protocol: The same volunteers also participated in a wine study. The same “wash out” period was used, and the same timing of the experiment was applied. Instead of taking a capsule of tRV each of the volunteers consumed 200 ml of red wine, which was selected on a basis that it would contain 1 mg of tRV in this volume. The rest of the Protocol employed was the same as above.
After taking blood, serum was separated, aliquoted and stored at −80° C. for further testing.

A short description of data set [3]: anti-tRV ELISA measurement of tRV in human serum after 100 mg tRV capsule (nutraceutical study). The protocol:
as §1
RV-BSA was pre-absorbed on microplate wells in 0.1M carbonate buffer, pH=9.5 (at a concentration of 5 μg/ml) overnight at 4° C. After washing four times the PBST plate was blocked with PBS contacting 1% of Top Block (<<Yuro>>, Switzerland).
For the calibrating curve different concentrations of tRV were added into the wells. The stock solution used was 1 mg/ml of tRV diluted in PBST with 0.5% BSA and 20% ethanol. 50 μl of each serum extract to be tested were added to parallel wells. After which 50 μl of the conjugate of HRP with monoclonal anti-tRV antibodies was added to all the wells. The content of the wells was mixed using a shaker for 1 minute and then the plate was then incubated for 1 hour at +37° C.
as §2
Inhibition by free tRV of the binding of serum antibodies with immobolised RV-BSA (Kin) was calculated according to the following formula: Kin=100−(A450D/A450C−)×100, where: • A450D is the optic density in samples with free tRV (testing serum or samples from the calibrating curve), • A450 C is the an optic density without free tRV.
(§3) The group of 5 volunteers comprised of 2 female and 3 male clinically healthy Caucasian persons, age between 23 and 35 years.
(§4) They were asked, before commencing this experiment, to go for 3-4 days “wash-out”, when consumption of any grape, wine, peanut, chocolate and other products which might contain them.
(§5) In the morning of the experiment, one hour after light breakfast, volunteers were given 1 gelatine capsule containing 100 mg of tRV.
(§6) Blood samples were taken from their median cubital or cephalic veins at the baseline point. Then, after administration of tRV, their blood was taken again at the following time points: 30 minutes, 1 hour, 2, 3, 4, 6 and 8 hours.
(§7) After taking blood its serum was separated, aliquoted and stored at −80° C. for further testing.

A short description of data set [4]: HPLC-MS measurement of tRV in human serum after 100 mg tRV capsule (nutraceutical study). The protocol:
as §3, §4, §5, §6, §7

Where [5] appears, read: 1 h after 100 mg tRV, volunteers 1 and 2.
Setting [6] is: 2 h after 100 mg tRV, volunteers 1 and 2.
The mark [7] stands for this setting: human serum, 100 mg tRV dietary supplement, sum of 30 min + 1 h + 2 h + 3 h + 4 h + 6 h + 8 h, one value per volunteer.
The mark [8] stands for this setting: human, serum, oral, 100 mg, 1 h after 100 mg tRV, volunteers 1 and 2.
Setting [9] is: human, serum, oral, 100 mg, 2 h after 100 mg tRV, volunteers 1 and 2.

Several values for one entry are separate records, joined by “and”; a condition that tells them apart may be missing. Equal values may be shown once.

Consider `Oc1ccc(/C=C/c2cc(O)cc(O)c2)cc1` [tRV, trans-Resveratrol], for which, in data set [1], the “Concentration of tRV in serum as a sum of 5 separate measurements, ELISA” value is 310 ng/mL and 850 ng/mL and 120 ng/mL and 460 ng/mL and 380 ng/mL. For the same molecule, the “Concentration of tRV in serum as a sum of 5 separate measurements, HPLC-MS” value in data set [2] was 6 ng/ml and 572 ng/ml and 0 ng/ml (3×). In addition, the “Concentration of tRV in serum, ELISA” value in data set [3] (30 min after 100 mg tRV, volunteers 1 and 2) was found to be 90 ng/mL; in data set [3] (setting [5]) it was 490 ng/mL; in data set [3] (setting [6]), 255 ng/mL; in data set [3] (3 h after 100 mg tRV, volunteers 1 and 2) it was 10 ng/mL; in data set [3] (4 h after 100 mg tRV, volunteers 1 and 2) it was 195 ng/mL; in data set [3] (6 h after 100 mg tRV, volunteers 1 and 2) it was 620 ng/mL. Also, in data set [3] (setting [7]), the “Concentration of tRV in serum as a sum of 7 separate measurements, ELISA” value was 1600 ng/mL and 1900 ng/mL and 1070 ng/mL and 795 ng/mL and 1412 ng/mL. In data set [3] (human, serum, oral, 100 mg, 30 min after 100 mg tRV, volunteers 1 and 2), this molecule gave a concentration at 30 min of 140 ng/mL. Moreover, the results for the concentration at 1 h in data set [3] (setting [8]) and in data set [4] (setting [8]) were 650 ng/mL and 65 ng/mL, respectively. The concentration at 2 h in data set [3] (setting [9]) turned out to be 210 ng/mL; in data set [4] (setting [9]), 12 ng/mL. In data set [3] (human, serum, oral, 100 mg, 3 h after 100 mg tRV, volunteers 1 and 2), this molecule yielded a concentration at 3 h of 20 ng/mL. The molecule further showed a concentration at 4 h in data set [3] (human, serum, oral, 100 mg, 4 h after 100 mg tRV, volunteers 1 and 2) of 135 ng/mL. Also, in data set [3] (human, serum, oral, 100 mg, 6 h after 100 mg tRV, volunteers 1 and 2), the concentration at 6 h worked out at 420 ng/mL. Also, the “Concentration of tRV in serum, HPLC-MS” value in data set [4] (setting [5]) amounted to 97 ng/mL; in data set [4] (setting [6]), 21 ng/mL. In addition, the “Concentration of tRV in serum as a sum of 7 separate measurements, HPLC-MS” value in data set [4] (setting [7]) was 98 ng/mL and 139 ng/mL and 79 ng/mL and 37 ng/mL and 107 ng/mL.
